Assay: gradient 5% acetonitrile 3 min, to 50% in 2 min, to 85% in 15 min, held 3 min, 100 µL/min
Settings: column: Zorbax Extend-C18 2.1 x 50 mm; eluents: water / acetonitrile, 0.1% formic acid
In short: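 Retention time was recorded from adduct peaks, which were picked computationally and each inspected manually. Pure standards ran in mixtures of ~100 molecules on HPLC coupled to a quadrupole time-of-flight mass spectrometer, in positive and negative ionization mode, through a Zorbax Extend-C18 column (2.1 × 50 mm, 1.8 μm) at 100 μL/min. Eluents were water and acetonitrile, each with 0.1% formic acid.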

SMILES | RP-LC retention time [s]
CC(C)n1c(-c2cccc(C(=O)NCc3ccncc3)c2)nc2cccnc21 | 599
COC(=O)c1ccc(Nc2nc(C)nc3c2CCC3)cc1 | 615
Cc1ccc(CNC(=O)c2cc3n(n2)CC(C)(C(=O)NCCC(C)C)N(C)C3=O)cc1 (stereo not drawn) | 802
Cc1ccc(-c2cc(N3CCN(C(=O)c4cc(C)cc(C)c4)CC3)ncn2)cc1 | 731
Cc1c(C)n(C(=O)CN2CCC(C(N)=O)CC2)c2ccccc12 | 614
CCOC(=O)C1CCC(CNC(=O)N2CCC(N3CCN(Cc4ccccc4)C(=O)C3=O)CC2)CC1 (stereo not drawn) | 734
O=c1n(Cc2ccccc2)nc2ccc(S(=O)(=O)N3CCCCC3)cn12 | 910
CCOC(=O)Cc1ccc(NC(=O)NC2CCN(c3cc(C)cc(C)c3)C2=O)cc1 (stereo not drawn) | 888
CCCCN(Cc1nc2nc(C)cc(C)n2n1)C(=O)c1ccccc1 | 757
Cc1ccc(-c2nc3ncccn3c2Nc2ccc(C)cc2C)cc1 | 838
COc1ccc(NC(=O)c2cn3c(n2)CSCC3)cc1F | 694
O=C(CC(=O)Nc1ccc2nc3n(c(=O)c2c1)CCCCC3)Nc1ccc(F)cc1 | 705
Cc1ccc(NC(=O)C(C)C2CCN(C(=O)Nc3ccc(F)cc3)CC2)cc1Cl (stereo not drawn) | 974
COCCNC(=O)c1cn2cccc(C)c2n1 | 561
CN(CC(=O)N1CCN(c2cccc(Cl)c2)CC1)S(=O)(=O)c1c[nH]c(C(=O)N2CCCC2)c1 | 834
COc1ccc2[nH]cc(CCNC(=O)CC3CCN(S(=O)(=O)c4ccc(Cl)s4)CC3)c2c1 | 905
Cc1cccc(NC(=O)Cn2c(=O)c3cc(C4CC4)nn3c3ncccc32)c1 | 789
CC(C)c1ccc(NC(=O)C2(Cc3cccnc3)CCCCC(=O)N2)cc1 (stereo not drawn) | 669
CC1CCN(Cc2csc(N3CCN(C(=O)CSc4ccccc4)CC3)n2)CC1 | 1130
O=C(Cc1ccccc1)NC1CCN(c2cc(-c3cccs3)[nH]n2)C1 (stereo not drawn) | 741
O=c1c2oc3ccccc3c2ncn1Cc1nc(-c2cccc(Br)c2)no1 | 1060

SMILES | RP-LC retention time [s]
CN1C2CCC1CC(OC(=O)C(O)c1ccccc1)C2 (stereo not drawn) | 794
O=C(Nc1cc(Cl)cc(Cl)c1)N1CCc2nc[nH]c2C1 | 642
Fc1ccc(CN2CC(F)(F)C[C@H]2COc2cccnc2)c(Cl)c1 | 870
COCc1nncn1C1CCN(S(=O)(=O)c2cccc(F)c2)CC1 | 693
O=C(NCc1cccnc1)C1CCN(S(=O)(=O)c2cc(-c3noc(C4CCC4)n3)cs2)CC1 | 702
CCCc1c(C(=O)O)nnn1Cc1cccc(OC)c1 | 738
COC(=O)c1ccc2c(=O)n(-c3ccccc3)c(N3CCN(C)CC3)nc2c1 | 624
Cc1cc(C)cc(N2C=NS(=O)(=O)c3cccnc32)c1 | 837
COc1ccc(C(=O)N2CCN(c3cc(C)n4cnnc4n3)CC2)c(OC)c1 | 999
O=C1CC(c2noc(-c3cccc(Cl)c3)n2)CN1c1ccc(F)cc1 (stereo not drawn) | 1030
CCOC(=O)C1=C(CN2CCN(CC)CC2)NC(=O)NC1c1ccc(OC)cc1 (stereo not drawn) | 599
O=C(c1ccc2c(c1)ncn2CCN1CCCC1)N1CCN(c2ccccc2F)CC1 | 596
COc1ccc2c(c1)C1(CCN(S(=O)(=O)c3cccc(Cl)c3)C1)C(=O)N2 (stereo not drawn) | 866
O=c1c2ccccc2oc2nc(-c3ccco3)n(Cc3ccccc3)c(=O)c12 | 797
COCCN1C(=O)CCc2cc(NS(=O)(=O)c3ccc(Cl)s3)ccc21 | 793
Cn1c(=O)c2ccn(CC(=O)N3CCC(Cc4ccccc4)CC3)c2n(C)c1=O | 782
O=C(Cn1cccc1-c1nc(-c2ccccc2)cs1)NCc1ccco1 | 1030
CCCN1C(=O)COc2ccc(-c3noc(COc4ccc(Cl)cc4C)n3)cc21 | 1260
CCCNC(=O)Cn1c(CC)nc2c(c1=O)CN(Cc1ccccc1)CC2 | 589
O=C(Nc1cccc(Cl)c1F)C1CC(=O)N(c2ccc3c(c2)CCN3C(=O)C2CC2)C1 (stereo not drawn) | 831
COc1ccc(-c2nnc(-c3ccccc3)o2)cc1S(=O)(=O)NC1CCCC1 | 966

The next lines start with the values.

RP-LC retention time [s] | SMILES
984 | CCn1c(=O)c(N2CCN(C(=O)Nc3cc(C)ccc3C)CC2)nc2ccccc21
784 | O=C(CN1C(=O)CCc2cc(Br)ccc21)NCc1ccccc1
673 | COCc1noc(C2CCCCN2C(=O)Cc2c(C)noc2C)n1 (stereo not drawn)
899 | Cn1cccc1CN(Cc1cccs1)C(=O)Cn1c(=O)oc2ccccc21
797 | CC(C)c1ccc(NC(=O)C(=O)NCC2(CO)CC2)cc1
950 | Cc1nn(-c2ccccc2)c(C)c1S(=O)(=O)N1CCC(C(=O)Nc2ccccc2F)CC1
876 | COC(=O)c1cc(OC)c(OC)cc1NC(=O)NCCc1c[nH]c2ccccc12
853 | COc1ccc(NC(=O)CN2C(=O)CC(C)Sc3ccccc32)c(OC)c1 (stereo not drawn)
885 | COc1ccccc1CNC(=O)CN1C(=O)C2CCCCN2c2ccc(S(=O)(=O)N(C)C)cc21 (stereo not drawn)
616 | Cc1ccc2nc(Nc3nccc(C)n3)nc(C)c2c1
655 | Cc1cc(=O)n(CC#N)c(N2CCCCC2)n1
628 | CCOC(=O)c1[nH]c(C)c(CCC(=O)N2CCC(C(=O)NCCOC)CC2)c1C
660 | COc1ccc(S(=O)(=O)NCC2CCN(Cc3cc(C)oc3C)CC2)cc1Cl
1170 | CSc1ccc(-c2noc(CN3C(=O)COc4cc(Cl)ccc43)n2)cc1
784 | O=C(NCc1csc(C2CCN(C(=O)Cc3ccc(Cl)cc3)CC2)n1)C1CCC1
910 | CCOc1ccccc1N1CCN(S(=O)(=O)c2nn(CC)cc2C(=O)NCCOC)CC1
829 | O=C(CN1CCN(Cc2ccc(F)cc2)C(=O)C1=O)N1CCN(c2cccc(Cl)c2)CC1
649 | CCn1cc(CCNC(=O)Nc2ccc(OC)cc2OC)c2cccnc21
787 | CNC(=O)c1csc2c1CCCCC2
831 | COc1ccc(CNC(=O)Cn2ccc3ccc(N4CCOCC4)nc32)cc1
692 | Cc1c(-c2noc(C(=O)NCCCN3CCCCCC3)n2)oc2ccccc12
685 | CCC(C)NC(=O)NCCc1nc2cccnc2n1Cc1ccccc1 (stereo not drawn)
588 | CSc1ccc(CNC(=O)CCNc2cnc3cnccn23)cc1
731 | COC(=O)c1ccc(C(=O)NCCCC(=O)Nc2cccc3cccnc23)cc1
900 | CCc1noc(-c2cc(=O)n(CC(=O)NCc3ccccc3OC)c3ccccc23)n1
555 | O=C(c1ccn2c(-c3ccccc3Br)nnc2c1)N1CCN(c2ccccn2)CC1
